Assay results taken from US11357786B2, “Synthetic disugar hydrocarbons as natural analogs to control microbial behaviors” (Syracuse University, priority 2014, dated 2022).

Experiments:
PAO1-GFP = assay: microbe, parasite or virus in culture; format: cell-based, Pseudomonas aeruginosa
Method: (§1) A crystal violet (CV) assay was used to measure the amount of PAO1 biofilm formed after 24 h of bacterial inoculation. The fluorescence of green fluorescent proteins (GFP) expressed by PAO1-GFP was measured to directly quantify bacterial adhesion on polystyrene black 96 well plates with and without maltose derivatives after 2 h of bacterial inoculation. To evaluate the potential of maltose derivatives as both anti-biofilm and anti-adhesion agents, they were compared to a brominated furanone (BF8) known to inhibit biofilm formation, and two generic surfactants, sodium dodecyl sulfate (SDS) and tetra (ethylene glycol) monododecyl ether (C12EG4OH). […] P. aeruginosa strain PAO1-EGFP that constitutively producing green fluorescent protein was allowed to form biofilm on sterile steel coupons.
Overnight culture of PAO1-GFP was subcultured to an OD600 of 0.01 into the 95:5 M9+:Lb medium. Subculture was allowed to reach the OD600 of 0.1 in a rotary shaker at 250 rpm and 37° C. 200 μL of the subculture was then transferred to the wells of black microtiter plate with and without (control) maltose derivatives. This black 96 well plate was then incubated in a shaker at 37° C. for 2 h. After 2 h, bacterial culture from the plate was discarded and each well was washed once with saline water (0.85 w/v % aqueous NaCl solution). Fresh 95:5 M9+:Lb medium was added to the black 96 well plate and fluorescence of the surface adhered bacteria was measured by Synergy 2 multi-mode microplate reader with Gen5 data analysis software at an excitation wavelength of 500 nm and an emission wavelength of 540 nm. Background signal from 95:5 M9+:Lb medium was eliminated from all the samples.

PAO1-EGFP biofilm = assay: Biofilm on steel coupons, fluorescence / CLSM; format: cell-based, Pseudomonas aeruginosa; conditions: 160 μM, 24 h, LB media
Method: as §1
Confocal laser scanning microscopy (CLSM) based biofilm inhibition assay. Steel coupons (˜1×1 cm) were washed with EtOH, dried under a stream of nitrogen and then sterilized in an autoclave. Overnight culture of PAO1/EGFP (OD600 ˜1.0) grown in LB media (supplemented with 300 μg/mL of carbenicillin), was sub-cultured to OD600˜0.01 and then the OD600 was allowed to reach ˜0.1. Aliquot (600 μL) of PAO1/EGFP subculture OD600˜0.1 was then added into the wells of a 24-well micro titer plate. DSHs were then introduced into the assigned wells to reach a resultant concentration of 160 μM. Bacterial sub-culture with no agent served as positive control. Sterile steel coupons were then placed into the wells and the plates were wrapped with saran wrap and incubated for 24 h at 37° C. under static conditions. After 24 hours, the steel coupons were removed and washed by dipping in PBS buffer (2 washes) and the dried by holding with a forcep and gently dabbing the edge on a bleached paper (KIM wipes). The dried steel coupons were viewed under confocal laser scanning microscope (CLSM). Images were taken at 4 random locations on each steel coupons. Z-stacked images were also taken to determine the relative thickness of the biofilm.

| Structure (SMILES) | PAO1-EGFP biofilm on stainless steel coupons (CLSM) (PAO1-EGFP biofilm) | other results |
| --- | --- | --- |
| CCCCCCCCCCCCOS(=O)(=O)[O-].[Na+] [SDS, sodium dodecyl sulfate, reference compound] |  | inhibition at 85 µM (PAO1-GFP; Pseudomonas aeruginosa, PAO1, 2 h, read-out: Inhibition of PAO1-EGFP adhesion on polystyrene): ~40% |
| CC(C)CCCC(C)CCCC(C)CCO[C@H]1O[C@H](CO)[C@@H](O[C@@H]2O[C@H](CO)[C@@H](O)[C@H](O)[C@H]2O)[C@H](O)[C@H]1O (stereo partly drawn) [SFαC (13), saturated farnesyl-α-cellobioside] | decreased the fluorescence signal significantly |  |
| CCCCCCCCCCCCOCCOCCOCCOCCO [C12EG4OH, tetra (ethylene glycol) monododecyl ether, reference compound] |  | Inhibition of PAO1-EGFP adhesion on polystyrene (PAO1-GFP; 85 μM, 2 h): about 40% |
| CC(C)CCCC(C)CCCC(C)CCO[C@@H]1O[C@H](CO)[C@@H](O[C@@H]2O[C@H](CO)[C@@H](O)[C@H](O)[C@H]2O)[C@H](O)[C@H]1O (stereo partly drawn) [SFβC (12), saturated famesyl-β-cellobioside] | decreased the fluorescence signal significantly |  |
